From patent US20110288123A1, “FORMULATIONS FOR THE TREATMENT OF ACUTE HERPES ZOSTER PAIN” (priority 2008, published 2011)

Columns and labels:
[1] = Stinging test (VAS) on tape-stripped forearm skin of subjects; format: in vivo, human; conditions: for Subjective Stinging Score, mean: 100 mm VAS, n=10, abraded skin
Description: Topical formulations, particularly those that are to be applied to diseased or damaged skin (e.g. cracks, fissures, open blisters, rash, and the like) may produce the sensory perception of stinging, a distinct discomfort to the user. A stinging test can be used to assess whether the novel topical formulations described herein produce a sensory perception of stinging.
For example, the study is designed to assess the sting potential of four topical formulations using a modification of a lactic acid sting assessment method. The test formulations are evaluated on skin that has been partially damaged (e.g. partial removal of the stratum corneum by tape stripping) to simulate diseased skin. Both a positive control (70% isopropyl alcohol) and a negative control (water) can be included to ascertain each subject's ability to sense the stinging sensation.
After providing informed consent, each subject receives a single dose exposure of 5 μL/cm^2 (40 μL/site) of a test formulation to an 8 cm^2 (2 cm×4 cm) surface abraded test site on their forearms (3 sites/arm), for a 10 minute duration. Skin abrasion is produced by repetitive tape stripping until a TEWL (Trans-Epidermal Water-Loss) measurement of 30 g/m^2/hr, or greater, has been achieved (e.g. tape stripping will be performed 15 times followed by a TEWL measurement. If the TEWL is <30 g/m^2/hr, 10 more strips will be collected, if TEWL is still <30 g/m^2/hr, 10 more tape strip will be collected).
Subjects rated stinging, pain and discomfort at the site using a 100 mm visual analogue scale (VAS), one for each individual sensation, immediately after dosing and at 2, 5 and 10 minutes following topical application. Subjects provided a description of the sensations experienced following application of each test article. The subjects responses, measured in mm, were tabulated for each post-dosing assessment for each test sited.

[2] = Crystallization of lidocaine in formulation with time; format: physicochemical; conditions: lidocaine base formulation; water concentration greater than about 40% w/w
Description: In this experiment, the water concentration in L504 was maximized in order to develop a more benign vehicle with reduced chance of irritation.

| Compound | Subjective Stinging Score, mean ([1]; 2 Minute after application) [mm] | Subjective Stinging Score, mean ([1]; 5 Minute after application) [mm] | Subjective Stinging Score, mean ([1]; 10 Minute after application) [mm] | Subjective Stinging Score, mean ([1]; Immediate after application) [mm] | Subjective Stinging Score, mean ([1]; Maximum score) [mm] | stinging response in the stinging test (in words) ([1]; comparison with water application or LidHCL115a base formulation) | crystallization of lidocaine in solution with time [2] |
| --- | --- | --- | --- | --- | --- | --- | --- |
| CC(C)O [70% Isopropanol, Isopropyl Alcohol] | 3.31 | 1.87 | 1.00 | 10.84 | 12.13 | immediate stinging response is severe, followed by a rapid fall in pain | – |
| CCN(CC)CC(=O)Nc1c(C)cccc1C [lidocaine, Lidocaine base] | – | – | – | – | – | – | tended to crystallized with time |
